In the supplement of paper PMC8633005:

Tests used:
Experiment in all cases: drug sensitivity score (DSS) (DSS (unitless, 0-50 scale)); higher = more sensitive (stronger viability inhibition); extreme values may be limits of the assay
Settings in all cases: 72 h; culture: 2D
Bowes = tested on: Bowes
Outline: (§1)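 Drug sensitivity scores, modified area-under-curve measures, were derived from dose-response curves fitted in the in-house Breeze software. The curves came from melanoma cell lines and patient-derived melanoma cultures (1000–1500 cells per well) grown in 2D in 384-well plates holding a 527-compound oncology library. Each compound was dissolved in DMSO or water and tested at five concentrations across a 10,000-fold range. Viability was read by CellTiter-Glo luminescence after 72 h at 37 °C.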

FM-MEL-2 = tested on: FM-MEL-2
Outline: as §1

FM-MEL-3 = tested on: FM-MEL-3
Outline: as §1

FM-MEL-6 = tested on: FM-MEL-6
Outline: as §1

SK-MEL-28 = tested on: SK-MEL-28
Outline: as §1

SK-MEL-2 = tested on: SK-MEL-2
Outline: as §1

WM165 = tested on: WM165
Outline: as §1

WM852 = tested on: WM852
Outline: as §1

| Compound | drug sensitivity score (Bowes) | drug sensitivity score (FM-MEL-2) | drug sensitivity score (FM-MEL-3) | drug sensitivity score (FM-MEL-6) | drug sensitivity score (SK-MEL-28) | drug sensitivity score (SK-MEL-2) | drug sensitivity score (WM165) | drug sensitivity score (WM852) |
| --- | --- | --- | --- | --- | --- | --- | --- | --- |
| Cc1c(C(=O)Nc2ccc(N3C[C@@H](C)O[C@@H](C)C3)nc2)cccc1-c1ccc(OC(F)(F)F)cc1 [Sonidegib] | 4.1 | 1.5 | 4.1 | 0.1 | 0 | 0 | 0.2 | 2.5 |
| C=CCN(/C=C1/C(=O)O[C@H](COC)[C@@]2(C)C1=C(O)C(=O)C1=C2[C@H](OC(C)=O)C[C@]2(C)C(=O)CC[C@@H]12)CC=C [Sonolisib] | 0 | 0 | 0 | 0 | 0 | 0 | 0 | 0 |
| CNC(=O)c1cc(Oc2ccc(NC(=O)Nc3ccc(Cl)c(C(F)(F)F)c3)cc2)ccn1 [Sorafenib] | 0 | 1 | 1.4 | 0 | 0 | 0 | 0 | 0 |
| CN1CCN(c2nc(C3=C(c4c[nH]c5ccccc45)C(=O)NC3=O)c3ccccc3n2)CC1 [Sotrastaurin] | 0 | 3.2 | 0.3 | 3.7 | 0 | 0 | 0 | 0 |
| C=CC(=O)Nc1cccc(Nc2nc(Nc3ccc(OCCOC)cc3)ncc2F)c1 [Spebrutinib] | 2.1 | 0.9 | 1 | 1 | 0.7 | 0 | 1.1 | 0.9 |
| CC(C)n1cnc2c(NCCc3ccc(O)cc3)nc(-c3csc4ccccc34)nc21 [StemRegenin 1] | 1.1 | 1.5 | 3.4 | 3.6 | 0 | 0 | 2.5 | 1.3 |
| CCN(CC)CCNC(=O)c1c(C)[nH]c(/C=C2\C(=O)Nc3ccc(F)cc32)c1C [Sunitinib] | 0 | 0 | 0 | 0 | 0 | 0 | 0.8 | 0 |
| CC(C)(O)CC(=O)NCCn1ccc2ncnc(Nc3ccc(Oc4cccc(C(F)(F)F)c4)c(Cl)c3)c21 [TAK-285] | 1.4 | 0 | 0 | 0 | 0 | 0 | 0 | 0 |
| CCS(=O)(=O)c1cccc(-c2cc(C(=O)NC3CCN(C)CC3)c(C)c3[nH]c4ncc(C)cc4c23)c1 [TAK-901] | 7.3 | 0.9 | 1.9 | 1.9 | 4.1 | 2.4 | 9.4 | 4 |
| Cc1cccc(-c2[nH]c(CNc3ccccc3F)nc2-c2ccc3ncnn3c2)n1 [TEW-7197] | 0 | 0.7 | 0 | 0 | 0 | 0 | 0 | 0 |
| Nc1nc(N)c2nc(-c3cccc(O)c3)c(-c3cccc(O)c3)nc2n1 [TG100-115] | 2.9 | 1.8 | 0 | 1 | 0 | 0 | 0 | 0 |
| CC(C)Oc1ccc(-c2nn([C@@H](C)c3oc4ccc(F)cc4c(=O)c3-c3cccc(F)c3)c3ncnc(N)c23)cc1F [TGR-1202] | 0.9 | 0.9 | 0 | 0 | 0 | 0 | 0 | 1 |
| Cc1cc(C(C)Nc2ccccc2)c2nc(N3CCOCC3)cc(=O)n2c1 (stereo not drawn) [TGX-221] | 0.6 | 2.2 | 1.1 | 0.9 | 3.3 | 0 | 0.1 | 1.2 |
| Nc1nc(NC2CC2)cc(-c2cccc(Cl)c2Cl)n1 [TH588] | 0 | 0 | 2.2 | 0 | 0 | 0 | 0.9 | 4.3 |
| Clc1ccccc1C(c1ccccc1)(c1ccccc1)n1cccn1 [TRAM-34] | 0 | 0 | 0 | 0 | 0 | 0 | 0 | 0 |
| CC(=O)Nc1ccc(C(=O)Nc2ccccc2N)cc1 [Tacedinaline] | 0 | 1.6 | 2.7 | 1.7 | 0 | 0 | 0 | 1.5 |
| C=CC[C@@H]1/C=C(\C)C[C@H](C)C[C@H](OC)[C@H]2O[C@@](O)(C(=O)C(=O)N3CCCC[C@H]3C(=O)O[C@H](/C(C)=C/[C@@H]3CC[C@@H](O)[C@H](OC)C3)[C@H](C)[C@@H](O)CC1=O)[C@H](C)C[C@@H]2OC [Tacrolimus] | 0.6 | 1.9 | 1.3 | 0.1 | 0 | 0 | 0 | 0.1 |
| CN(C(=O)c1ccc(F)cc1C(F)(F)F)C1CCN(c2nnc(-c3ccnn3C)c3ccccc23)CC1 [Taladegib] | 0 | 0.4 | 0 | 0 | 0 | 0 | 0 | 0 |
| Cn1ncnc1[C@H]1c2n[nH]c(=O)c3cc(F)cc(c23)N[C@@H]1c1ccc(F)cc1 [Talazoparib] | 0 | 0.4 | 2.3 | 2.3 | 0.1 | 0 | 11.7 | 0 |
| C[C@@H]1CN(Cc2ccc(F)cc2)[C@@H](C)CN1C(=O)c1cc2c(C(=O)C(=O)N(C)C)cn(C)c2cc1Cl [Talmapimod] | 0 | 0 | 0 | 0 | 0 | 0 | 0 | 0 |
| COc1cc(Nc2ncc(F)c(Nc3ccc4c(n3)NC(=O)C(C)(C)O4)n2)cc(OC)c1OC [Tamatinib] | 1.3 | 5.5 | 2.7 | 0 | 0 | 0 | 0.9 | 0 |

| Compound | drug sensitivity score (Bowes) | drug sensitivity score (FM-MEL-2) | drug sensitivity score (FM-MEL-3) | drug sensitivity score (FM-MEL-6) | drug sensitivity score (SK-MEL-28) | drug sensitivity score (SK-MEL-2) | drug sensitivity score (WM165) | drug sensitivity score (WM852) |
| --- | --- | --- | --- | --- | --- | --- | --- | --- |
| CC/C(=C(\c1ccccc1)c1ccc(OCCN(C)C)cc1)c1ccccc1 [Tamoxifen] | 0 | 3.7 | 5.6 | 4.4 | 2.4 | 0 | 3.8 | 2.3 |
| COc1cc2c(N3CCN(C(=O)Nc4ccc(OC(C)C)cc4)CC3)ncnc2cc1OCCCN1CCCCC1 [Tandutinib] | 0 | 0 | 0 | 0 | 0 | 0 | 0 | 0 |
| O[C@H]1CC[C@H](Nc2ncc3nc(Nc4c(F)cc(F)cc4F)n([C@H]4CCOC4)c3n2)CC1 [Tanzisertib] | 0 | 0 | 0.1 | 0 | 0.8 | 0 | 0.1 | 0 |
| C[C@@H](C(=O)O)c1ccc(-c2ccccc2)c(F)c1 [Tarenflurbil] | 0 | 0 | 0 | 0 | 0 | 0 | 0 | 0 |
| Cc1nc(-c2cn3c(n2)-c2ccc(-c4cnn(C(C)(C)C(N)=O)c4)cc2OCC3)n(C(C)C)n1 [Taselisib] | 2.8 | 7.4 | 4.7 | 6.6 | 5.6 | 0.2 | 4.2 | 3.5 |
| COc1cccc2c1c(O)c(C(=O)N(C)c1ccc(C(F)(F)F)cc1)c(=O)n2C [Tasquinimod] | 0 | 0.9 | 0.2 | 0.4 | 0 | 0 | 0 | 0 |
| CCN(c1cc(-c2ccc(CN3CCOCC3)cc2)cc(C(=O)NCc2c(C)cc(C)[nH]c2=O)c1C)C1CCOCC1 [Tazemetostat] | 1.5 | 0 | 0 | 1.3 | 0 | 0 | 0 | 0 |
| CNC(=O)c1cc(COc2nnc(Nc3ccc(Cl)cc3)c3ccoc23)ccn1 [Telatinib] | 0 | 0 | 0 | 0.1 | 0 | 0 | 0 | 0.3 |
| Cn1nnc2c(C(N)=O)ncn2c1=O [Temozolomide] | 0 | 0 | 0 | 0 | 0 | 0 | 0 | 0 |
| CO[C@H]1C[C@@H]2CC[C@@H](C)[C@@](O)(O2)C(=O)C(=O)N2CCCC[C@H]2C(=O)O[C@H]([C@H](C)C[C@@H]2CC[C@@H](OC(=O)C(C)(CO)CO)[C@H](OC)C2)CC(=O)[C@H](C)/C=C(\C)[C@@H](O)[C@@H](OC)C(=O)[C@H](C)C[C@H](C)/C=C/C=C/C=C/1C [Temsirolimus] | 0 | 4 | 0 | 4.4 | 2.5 | 0 | 6 | 0 |
| COc1cc([C@@H]2c3cc4c(cc3[C@@H](O[C@@H]3O[C@@H]5CO[C@@H](c6cccs6)O[C@H]5[C@H](O)[C@H]3O)[C@H]3COC(=O)[C@H]23)OCO4)cc(OC)c1O [Teniposide] | 0 | 0 | 0 | 0 | 0 | 0 | 0 | 0 |
| CN1CCC(COc2cnc(-c3cccc(Cn4nc(-c5cccc(C#N)c5)ccc4=O)c3)nc2)CC1 [Tepotinib] | 0 | 0 | 0 | 0 | 0 | 0 | 0 | 0 |
| COc1cc2c(Nc3ccc(Cl)c(Cl)c3F)ncnc2cc1OC[C@@H]1C[C@@H]2CN(C)C[C@@H]2C1 [Tesevatinib] | 1.8 | 0.1 | 0.8 | 0.3 | 0.1 | 0 | 0.1 | 0 |
| O=C1CCC(N2C(=O)c3ccccc3C2=O)C(=O)N1 (stereo not drawn) [Thalidomide] | 0 | 0 | 0 | 0 | 0 | 0 | 0 | 0 |
| Nc1nc2[nH]cnc2c(=S)[nH]1 [Thioguanine] | 8.5 | 5.4 | 0 | 2.6 | 4.3 | 3.5 | 12.8 | 6.8 |
| O=c1sn(-c2cccc3ccccc23)c(=O)n1Cc1ccccc1 [Tideglusib] | 0 | 0 | 0 | 0 | 0 | 0 | 0 | 0 |
| Cn1cncc1[C@@](N)(c1ccc(Cl)cc1)c1ccc2c(c1)c(-c1cccc(Cl)c1)cc(=O)n2C [Tipifarnib] | 21.1 | 7.4 | 11.2 | 6.2 | 5 | 3.6 | 10.4 | 3.4 |
| CC#CC(=O)N1CC[C@@H](n2c(=O)n(-c3ccc(Oc4ccccc4)cc3)c3c(N)ncnc32)C1 [Tirabrutinib] | 2 | 0 | 0 | 0 | 0 | 0 | 0 | 0 |
| O=C1NC(=O)[C@@H](c2cn3c4c(cccc24)CCC3)[C@@H]1c1c[nH]c2ccccc12 [Tivantinib] | 3.6 | 1.9 | 2.3 | 3.2 | 2.1 | 3.8 | 3.1 | 3.1 |
| COc1cc2nccc(Oc3ccc(NC(=O)Nc4cc(C)on4)c(Cl)c3)c2cc1OC [Tivozanib] | 2.8 | 3.4 | 4.8 | 0.5 | 3.1 | 0 | 3.1 | 1.1 |
